The values below come from patent publication US11161845B2, “Pyrrolopyridine-aniline compounds for treatment of dermal disorders” (Nflection Therapeutics, Inc., priority 2017, dated 2021).

As usually defined, the IC50 is the concentration needed to halve the response being measured. By efflux ratio is commonly meant the permeability from basolateral to apical divided by that in the opposite direction, in the common usage. A word on the Papp A→B: it is the apparent permeability from the apical to the basolateral side of a cell layer. Lower therefore signals poor permeation. The term Papp B→A denotes the apparent permeability from the basolateral to the apical side of a cell layer.

A short description of data set [1]: S9 stability assay, human liver S9 fraction. In kind it is in vitro ADME. Conditions: for CLint: known MEK compounds; for microsomal CLint at 1 μM / half-life at 1 μM: pH 7.4, Table 1, human liver S9 fraction; for microsomal CLint at 1 μM: read-out: CLint; for half-life at 1 μM: read-out: Liver S9 t1/2. As to the method:
Compounds were assessed for metabolic stability in human skin by assessing their rate of disappearance from human S9 skin fraction. Similarly, compounds were assessed for metabolic stability in human liver by assessing their rate of disappearance from human S9 liver fraction. The protocol below can be used to assess the difference between skin and hepatic metabolism.
The assay was carried out in 96-well microtiter plates at 37° C. Reaction mixtures (25 μL) contained a final concentration of 1 μM test compound, 2 mg/mL liver or skin S9 protein, and 1 mM NADPH in buffer (100 mM potassium phosphate, pH 7.4 buffer with 1 mM EDTA, 3 mM MgCl2). At each of the time points (0, 15, 30, and 60 minutes), 150 μL of quench solution (100% acetonitrile with 0.1% formic acid) with internal standard was transferred to each well. Besides the zero minute controls, mixtures containing the same components except the NADPH were also prepared as the negative control. Verapamil or testosterone was included as a positive control to verify assay performance. Plates were sealed and centrifuged at 4° C. for 15 minutes at 4000 rpm. The supernatant was transferred to fresh plates for LC/MS/MS analysis.
All samples were analyzed on LC/MS/MS using an AB Sciex API 4000 instrument, coupled to a Shimadzu LC-20AD LC Pump system. Analytical samples were separated using a Waters Atlantis T3 dC18 reverse phase HPLC column (20 mm×2.1 mm) at a flow rate of 0.5 mL/min. The mobile phase consisted of 0.1% formic acid in water (solvent A) and 0.1% formic acid in 100% acetonitrile (solvent B).
The extent of metabolism was calculated as the disappearance of the test compound, compared to the 0-min control reaction incubations. Initial rates were calculated for the compound concentration and used to determine t1/2 values and subsequently, the intrinsic clearance, CLint=(0.693) (1/t1/2 (min)) (mL incubation/mg of S9 protein).

Data set [2] in a line: Plasma LCMS compound levels, in vivo mouse model. Conditions: for concentration at 1 h: male, C57BL/6J, mouse, plasma; for Plasma LCMS Compound Levels: pre-dose (16 h). Also noted: species or system mice. As to the method: These mice were also shaved weekly.
(§1) Week 4 (Experiment end): Skin and blood were collected right before the last morning dose (N=3), 1 hour (N=3 mice), and 2 hours (N=3 mice) after final application; Blood draw: Plasma compound levels (LCMS); Skin biopsy: formalin fixed for histology and p-ERK staining, flash frozen for Western analysis and skin compound levels (LCMS)
(§2) Compound level analysis: Liquid chromatography with mass spectrometry method (LCMS) was used to detect compound levels in the skin and plasma. Tissues were preprocessed prior to LCMS as follows. Tissues were minced and incubated with collagenase and then finally homogenized using the stainless steel beads prior to LCMS analysis. Calibration curves and a QC test were run with each assay.

Data set [3] in a line: Compound levels in neck/back skin (LCMS), in vivo mouse model. Also noted: species or system mice. Conditions: topical 1% trametinib. As to the method: as §1
Skin biopsy and GI tract sampling: Skin was wiped down with 100% ethanol and a 1 cm^2 biopsy was obtained from compound application site each mouse at the 25 day end of experiment (except as noted below). The skin was biopsied prior to final dose from 3 mice, 1 hour after last compound application from 3 mice, 2 hours after last compound application from 3 mice. Half of the specimen were immediately flash frozen for LCMS analysis and Western Blot Analysis. Half of the specimen was fixed for 24 hours in 10% formalin and then transferred to ethanol for immunohistochemistry. Gastrointestinal tract was also formalin fixed overnight then transferred to 70% ETOH for storage.
as §2

The subject of data set [4] is C57BL/6J mice. Description: In vivo mouse model, skin and systemic toxicity of topical application (survival).
Description: This study was designed to assess the skin toxicity and gross systemic toxicity of twice daily topical administration of a compound disclosed herein, as well as to evaluate the effect of metabolic lability on systemic toxicity.
Study Objective: The primary objective of this study was to characterize the skin and systemic toxicity of twice daily topical application of a compound disclosed herein, applied for 25 days in mice. Secondary objectives included determination of the 25-day skin and plasma compound levels of formulations containing three dosages of compound of Ex. 2 after application to 10% body surface area (BSA) murine skin; assessment of gross systemic toxicity from the application of compound of Ex. 2 after twice daily application to 10% BSA murine skin for 25 days; and determination of the correlation of skin and plasma compound levels with associated toxicity.
Mice: 8 week old male C57BL/6J mice (Jackson Laboratories) were shaved prior to start of study and weekly.
Compound application: Compounds were dissolved in a 50% DMSO/50% propyelene glycol vehicle. 0.125 mL of the following compounds were applied to the shaved dorsal back of mice (10% BSA) twice daily for 5 days per week for a total of 24 days. The second dose was applied 8 hours after first morning dose. All mice were shaved once per week at application site.
Oral trametinib was dissolved in 0.5% hydroxypropyl methylcellulose (Sigma-Aldrich) and 0.2% Tween-80 (Sigma-Aldrich) and administered by oral gavage (0.2 mL bolus or 10 mg/kg) once daily 5 days per week. These mice were also shaved weekly.
Weekly (Weeks 0-4): body weight measurements weekly, starting week 0 until experiment end; photographs of dorsal back and face of each mouse weekly, starting week 0 until experiment end; skin; and gross stool analysis assessed weekly for heme color, starting week 0 until experiment end.
The study planned for the mice to be sacrificed at Day 25.
Kaplan Meier curves were analyzed to determine progression to skin toxicity for each arm as compared with vehicle. T-test were used to compare compound levels at each dosage. Ki-67+ cells and p-ERK expression were also assessed on a cellular level via immunostaining. Western blots informed semi-quantitative changes in p-ERK expression.
The target in data set [5] is T1, MEK1 (Homo sapiens, UniProt Q02750).
T1 construct: N-terminal His-tagged recombinant human full length protein; His (N); purchased Invitrogen PV3303; host or cells: insect cells
T1 sequence (Q02750 whole entry): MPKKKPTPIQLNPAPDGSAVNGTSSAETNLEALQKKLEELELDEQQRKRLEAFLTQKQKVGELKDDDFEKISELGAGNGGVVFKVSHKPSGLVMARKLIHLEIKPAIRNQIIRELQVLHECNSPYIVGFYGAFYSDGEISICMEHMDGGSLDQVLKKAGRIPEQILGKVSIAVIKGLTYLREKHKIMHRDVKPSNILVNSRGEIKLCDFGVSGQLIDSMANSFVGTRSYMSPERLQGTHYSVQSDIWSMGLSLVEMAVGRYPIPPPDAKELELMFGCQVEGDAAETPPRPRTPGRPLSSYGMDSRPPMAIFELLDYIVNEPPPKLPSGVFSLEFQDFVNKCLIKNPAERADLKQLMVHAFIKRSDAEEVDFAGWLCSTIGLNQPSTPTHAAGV
Description: MEK inhibition assay, Biological Example 1a (33P-ATP, P81 filter-binding). As to conditions: read-out: Assay 1: biochemical MEK IC50. As to the method: MEK1 inhibitory activity of compounds were tested using the following procedure. […] Activated in vitro by RAF1. MW=49.2 kDa, GenBank Accession No. NP_002746. • Substrate: 5 μM ERK2 (K52R), • Kinase-dead mutant, (GenBank Accession No. NM_0011949), aa2-358 with N-terminal His6 tag, MW=43.63 kDa, expressed in E. coli.
The substrate was prepared in freshly prepared Reaction Buffer. The kinase was delivered into the substrate solution and gently mixed. Test compounds were delivered in 100% DMSO into the kinase reaction mixture by Acoustic technology (Echo550; nanoliter range), and incubated for 20 min at room temperature. ^33P-ATP was delivered into the reaction mixture to initiate the reaction. The reaction mixture was incubated for 2 hours at room temperature. Kinase activity was detected by P81 filter-binding method.

Data set [6] concerns MDCK-MDR1 cells. Description: MDCK-MDR1 bi-directional transport assay. Conditions: 5 μM. As to the method:
(§3) MDCK-MDR1 is a stable-transfected cell line originating from MDCK cells, with over-expression of human MDR1 gene. The cell line is widely used for the identification and characterization of P-gp substrates and inhibitors.
(§4) MDCK-MDR1 cells were plated into 96-well Millipore Millicell-96 plates at 7,500 cells/75 μL/well and incubated for three days at 37° C. with 5% CO2. Cells were washed with Hank's Balanced Salt Solution (HBSS) with 5 mM HEPES for 30 minutes before starting the experiment. Test compound solutions were prepared by diluting DMSO stock into HBSS buffer, resulting in a final DMSO concentration of 0.1%. Prior to the experiment, cell monolayer integrity was verified by […] electrical resistance (TEER). Transport experiment was initiated by adding test compounds to the apical (75 μL) or basal (250 μL) side. Transport plates were incubated at 37° C. in a humidified incubator with 5% CO2. Samples were taken from the donor and acceptor compartments after one hour and analyzed by liquid chromatography with tandem mass spectrometry (LC/MS/MS).
(§5) Digoxin was used as reference control.
(§6) Apparent permeability (Papp) values were calculated using the following equation: Papp=(dQ/dt)/A/Co; where dQ/dt is the initial rate of amount of test compound transported across cell monolayer, A is the surface area of the filter membrane, and Co is the initial concentration of the test compound, calculated for each direction using a 4-point calibration curve by LC/MS/MS.
(§7) Net flux ratio between the two directional transports was calculated by the following equation: Ratio=Papp, B-A/Papp, A-B; where Papp, B-A and Papp, A-B represent the apparent permeability of test compound from the basal-to-apical and apical-to-basal side of the cellular monolayer, respectively.
(§8) Recovery was calculated based on the compound concentration at the end of the experiment, compared to that at the beginning of the experiment, adjusted for volumes.
(§9) A net flux ratio greater than two was considered a positive result for substrate determination. […] If the addition of a known P-gp inhibitor to the experiment reduces the net flux ratio by a significant amount (more than 50% reduction or reduces the ratio to close to unity), it is likely that the compound tested is a P-gp substrate.

Data set [7] deals with P-gp (human MDR1). Description: MDCK-MDR1 bi-directional transport assay. Conditions: dog; for Papp A→B at 1 h, 5 μM / Papp B→A at 1 h, 5 μM: MDCK-MDR1, Papp. As to the method: as §3, §4, §5, §6, §7, §8, §9

With `O=C(NOCCO)c1ccc2cncn2c1Nc1ccc(I)cc1F` [Example C5], in data set [1], the CLint amounted to 6.98 μL/min/mg protein, the microsomal CLint at 1 μM came out at 6.98 µL/min/mg and the half-life at 1 μM came to 0.833 h.
On to `CC(=O)Nc1cccc(-n2c(=O)n(C3CC3)c(=O)c3c(Nc4ccc(I)cc4F)n(C)c(=O)c(C)c32)c1` [trametinib, reference compound], for which the concentration at 1 h in data set [2] (10 mg/kg, oral trametinib) amounted to 0.0751 µg/mL; in data set [2] (topical 1% trametinib) it was 2.81 µg/mL. For the same molecule, the “Plasma LCMS Compound Levels” value in data set [2] (oral trametinib) stood at 39.93 ng/mL; in data set [2] (topical 1% trametinib) it was 1339.33 ng/mL. Further, the figures for the “Compound Levels in Neck/Back Skin” value in data set [3] (1 h) and in data set [3] (pre-dose (16 h)) were 3626.06 µg/mL and 4520.39 µg/mL, respectively. Moreover, the “Survival Rates” value amounted to 100% in data set [4] (oral trametinib 0.75 mg/kg daily gavage 5x/week, Day 0); 90% in data set [4] (oral trametinib 0.75 mg/kg daily gavage 5x/week, Day 3); 70% in data set [4] (oral trametinib 0.75 mg/kg daily gavage 5x/week, Day 6); 70% in data set [4] (oral trametinib 0.75 mg/kg daily gavage 5x/week, Day 9); 70% in data set [4] (oral trametinib 0.75 mg/kg daily gavage 5x/week, Day 12); 70% in data set [4] (oral trametinib 0.75 mg/kg daily gavage 5x/week, Day 15). Further, the “Survival Rates” value in data set [4] (oral trametinib 0.75 mg/kg daily gavage 5x/week, Day 18) turned out to be 70%; in data set [4] (oral trametinib 0.75 mg/kg daily gavage 5x/week, Day 21) it was 70%; in data set [4] (oral trametinib 0.75 mg/kg daily gavage 5x/week, Day 24), 70%; in data set [4] (oral trametinib 0.75 mg/kg daily gavage 5x/week, Day 25), 70%; in data set [4] (topical Trametinib 1%, twice daily 5 days per week, 10% BSA, Day 0), 100%; in data set [4] (topical Trametinib 1%, twice daily 5 days per week, 10% BSA, Day 3) it was 100%. Besides, the “Survival Rates” value in data set [4] (topical Trametinib 1%, twice daily 5 days per week, 10% BSA, Day 6) worked out at 100%; in data set [4] (topical Trametinib 1%, twice daily 5 days per week, 10% BSA, Day 9), 100%; in data set [4] (topical Trametinib 1%, twice daily 5 days per week, 10% BSA, Day 12) it was 100%; in data set [4] (topical Trametinib 1%, twice daily 5 days per week, 10% BSA, Day 15), 80%; in data set [4] (topical Trametinib 1%, twice daily 5 days per week, 10% BSA, Day 18), 0%; in data set [4] (topical Trametinib 1%, twice daily 5 days per week, 10% BSA, Day 21) it was 0%. Also, the “Survival Rates” value in data set [4] (topical Trametinib 1%, twice daily 5 days per week, 10% BSA, Day 24) is 0%; in data set [4] (topical Trametinib 1%, twice daily 5 days per week, 10% BSA, Day 25), 0%. The “mortality / weight loss” value in data set [4] (topically-applied 1%, Day 18) is listed as “found dead, or had to be sacrificed due to unacceptable weight loss”.
Turning to `Cn1cnc2c(F)c(Nc3ccc(Br)cc3Cl)c(C(=O)NOCCO)cc21` [Example C4], in data set [1], the CLint was 2.50 μL/min/mg protein, the microsomal CLint at 1 μM amounted to 2.5 µL/min/mg and the half-life at 1 μM stood at 2.3 h.
In the case of `O=C(NOC[C@H](O)CO)c1ccc(F)c(F)c1Nc1ccc(I)cc1F` [Example C2], in data set [1], the CLint is 1.02 μL/min/mg protein, the microsomal CLint at 1 μM amounted to 1.02 µL/min/mg and the half-life at 1 μM is 5.67 h.
In the same order, the values of `O=C(NC[C@@H](O)CO)c1ccncc1Nc1ccc(I)cc1F` [Example C7] are 1.29 μL/min/mg protein, 1.29 µL/min/mg and 4.47 h.
In the case of `Cn1cnc2c(F)c(Nc3ccc(Br)cc3F)c(C(=O)NOCCO)cc21` [Example C3], in data set [1], the CLint stood at 1.25 μL/min/mg protein, the microsomal CLint at 1 μM came out at 1.25 µL/min/mg and the half-life at 1 μM stood at 4.62 h.
Take `C#Cc1ccc(Nc2c(C(=O)NOCCO)c3cccnc3n2C)c(F)c1` [Example 3, 2-((4-Ethynyl-2-fluorophenyl)amino)—N-(2-hydroxyethoxy)-1-methyl-1H-pyrrolo[2,3-b]pyridine-3-carboxamide]: the IC50 in data set [5] amounted to 2450 nM.
For the molecule `C[C@H]1O[C@@H](O[C@H]2[C@@H](O)C[C@H](O[C@H]3[C@@H](O)C[C@H](O[C@H]4CC[C@@]5(C)[C@H](CC[C@@H]6[C@@H]5C[C@@H](O)[C@]5(C)[C@@H](C7=CC(=O)OC7)CC[C@]65O)C4)O[C@@H]3C)O[C@@H]2C)C[C@H](O)[C@@H]1O` [Digoxin], the “Recover Rate” value in data set [6] is reported as 96%. Moreover, the “Papp, A-B Value” in data set [6] (single values) was determined as 1.6 ×10⁻⁶ cm/s. Besides, the “Papp, B-A Value” in data set [6] (single values) turned out to be 14.1 ×10⁻⁶ cm/s. In addition, the efflux ratio at 1 h, 5 μM in data set [7] (MDCK-MDR1) amounted to 9.7. Moreover, the Papp A→B at 1 h, 5 μM was determined as 1.5 ×10⁻⁶ cm/s in data set [7] (A-B Mean) and 1.3 ×10⁻⁶ cm/s in data set [7] (A-B Value, single values). The Papp B→A at 1 h, 5 μM in data set [7] (B-A Mean) was 14.3 ×10⁻⁶ cm/s; in data set [7] (B-A Value, single values), 14.6 ×10⁻⁶ cm/s.
Turning to `O=C(NOCC1CC1)c1ccc(F)c(F)c1Nc1ccc(I)cc1Cl` [Example C1], in data set [1], the CLint was 10.37 μL/min/mg protein, the microsomal CLint at 1 μM stood at 10.4 µL/min/mg and the half-life at 1 μM came out at 0.55 h.
In the case of `CC(=O)Nc1cccc(-n2c(=O)n(C3CC3)c(=O)c3c(Nc4ccc(I)cc4F)n(C)c(=O)c(C)c32)c1` [Example C6], in data set [1], the CLint amounted to 0.86 μL/min/mg protein, the microsomal CLint at 1 μM is 0.86 µL/min/mg and the half-life at 1 μM was 6.7 h.
